# Assay results published in patent US20250188110A1, “SPECIFIC SMALL MOLECULE INHIBITORS THAT BLOCK KMT9 METHYLTRANSFERASE ACTIVITY AND FUNCTION” (ALBERT-LUDWIGS-UNIVERSITÄT FREIBURG, priority 2021, published 2025).
# Tests used:
# KMT9 [1] = target: T1, KMT9 (Homo sapiens, UniProt Q9Y5N5); assay: KMT9 methyltransferase inhibition assay, 3H-SAM scintillation (entries 1-154); assay type: biochemical; settings: entries 1-154: 3H-SAM assay, 25 nM KMT9, 5 μM ETF1
# T1 sequence (Q9Y5N5 1-214): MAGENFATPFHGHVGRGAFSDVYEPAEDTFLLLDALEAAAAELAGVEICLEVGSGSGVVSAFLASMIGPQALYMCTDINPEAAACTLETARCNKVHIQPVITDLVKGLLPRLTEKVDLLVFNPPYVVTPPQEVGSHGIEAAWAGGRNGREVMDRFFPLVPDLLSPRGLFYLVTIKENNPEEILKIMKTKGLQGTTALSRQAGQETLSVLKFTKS
# T1 sequence (Q9UI30 1-120 isoform Q9UI30-2 partner): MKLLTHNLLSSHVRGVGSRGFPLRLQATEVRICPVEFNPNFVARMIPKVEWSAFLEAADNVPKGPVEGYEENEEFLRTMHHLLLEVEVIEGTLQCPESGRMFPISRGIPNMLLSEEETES
# How it was run: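 Final 25 nM KMT9, 5 μM ETF1 (residues 140-275), 0.3 μM 3H-SAM plus 0.7 μM SAM in pH 8.5 BTP buffer, 2 h at 30° C. TCA-quenched, filter-washed, methylation counted by scintillation; % inhibition vs DMSO and no-enzyme controls, IC50 from four-parameter fit.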
# KMT9 [2] = target: T1, KMT9; assay: KMT9 thermal shift assay (SyproOrange); assay type: binding; settings: ΔTm; 500 µM compound, 2 μM KMT9, 5X SO; read-out: Thermal shift
# How it was run: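 Recombinant KMT9 was incubated with compound and SyproOrange at 25° C in 50 mM BTP pH 8.5, 1 mM MgCl2, 1 mM DTT. It was then heated from 20° C to 95° C at 1° C per 15 s with fluorescence read each step. Tm came from a Boltzmann sigmoidal fit; ΔTm relative to DMSO control, binned in 5 K ranges.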
# KMT9 [3] = target: T1, KMT9; assay: Microscale thermophoresis (MST) KMT9 binding; settings: microscale thermophoresis, His-tag labelled KMT9 (20 nM); read-out: MST
# How it was run: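 His-tagged KMT9 (20 nM), RED-Tris-NTA labelled, titrated with varying compound concentrations in 25 mM HEPES pH 7.5, 100 mM NaCl, 1 mM DTT, 0.05% Tween. MST at 40% MST and 100% LED power, Nano-RED excitation; Kd binned A ≤10 nM, B 10–100, C 100–1000, D >1000 nM.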
IC50 (KMT9 [1]) [µM],ΔTm at 500 µM (KMT9 [2]) [°C],Kd (KMT9 [3]) [µM],Structure (SMILES)
> 10,≤ 10,> 1,"CNc1ncnc2c1ccn2[C@@H]1C[C@H](C(=O)NCC2CCCNC2)[C@@H](O)[C@H]1O (stereo partly drawn) [348 (252), (1S,2R,3S,4R)-2,3-dihydroxy-4-(4-(methylamino)-7H-pyrrolo[2,3-d]pyrimidin-7-yl)-N-(piperidin-3-ylmethyl) cyclopentane-1-carboxamide]"
> 10,≤ 10,> 1,"CNc1ncnc2c1ccn2[C@@H]1C[C@H](CN2CC(CNCCc3ccc4ccccc4c3)C2)[C@@H](O)[C@H]1O [360 (264), (1R,2S,3R,5R)-3-(4-(methylamino)-7H-pyrrolo[2,3-d]pyrimidin-7-yl)-5-((3-(((2-(naphthalen-2-yl)ethyl)amino)methyl)azetidin-1-yl)methyl) cyclopentane-1,2-diol]"
0.1 to 1,15 to 20,0.1 to 1,"Nc1ncnc2c1c(Br)cn2[C@@H]1C[C@H](CNCCCNCCc2ccc(C(F)(F)F)cc2)[C@@H](O)[C@H]1O [336 (240), (1R,2S,3R,5R)-3-(4-amino-5-bromo-7H-pyrrolo[2,3-d]pyrimidin-7-yl)-5-(((3-((4-(trifluoromethyl)phenethyl)amino)propyl)amino)methyl) cyclopentane-1,2-diol]"
> 10,≤ 10,> 1,"CCC(=O)NCCNC[C@H]1O[C@@H](n2cnc3c(N)ncnc32)[C@H](O)[C@@H]1O [315 (216), N-(2-((((2R,3S,4R,5R)-5-(6-amino-9H-purin-9-yl)-3,4-dihydroxytetrahydrofuran-2-yl)methyl)amino)ethyl)propionamide]"
> 10,10 to 15,> 1,"CNc1ncnc2c1ccn2[C@@H]1C[C@H](CNCCCNCCc2cccc(N(C)c3ccccc3)c2)[C@@H](O)[C@H]1O [289 (186), (1S,2R,3R,5R)-3-(((3-((3-(methyl(phenyl)amino)phenethyl)amino)propyl)amino)methyl)-5-(4-(methylamino)-7H-pyrrolo[2,3-d]pyrimidin-7-yl) cyclopentane-1,2-diol]"
0.1 to 1,15 to 20,0.1 to 1,"Nc1ncnc2c1c(Br)cn2[C@@H]1C[C@H](CNCCCNCc2ccc(F)cc2)[C@@H](O)[C@H]1O [344 (248), (1R,2s,3R,5R)-3-(4-amino-5-bromo-7H-pyrrolo[2,3-d]pyrimidin-7-yl)-5-(((3-((4-fluorobenzyl)amino)propyl)amino)methyl) cyclopentane-1,2-diol]"
> 10,≤ 10,> 1,"CNc1ncnc2c1ccn2[C@@H]1C[C@H](CN(CCCNCCc2ccccc2)c2ccn(C)n2)[C@@H](O)[C@H]1O [443 (315), (1R,2S,3R,5R)-3-[4-(Methylamino)pyrrolo[2,3-d]pyrimidin-7-yl]-5-{[(1-methylpyrazol-3-yl)({3-[(2-phenylethyl)amino]propyl})amino]methyl}cyclopentane-1,2-diol]"
> 10,10 to 15,0.1 to 1,"CNc1ncnc2c1ccn2[C@@H]1C[C@H](C(=O)NCCNCCc2cccc(Oc3ccccc3)c2)[C@@H](O)[C@H]1O [356 (260), (1S,2R,3S,4R)-2,3-dihydroxy-4-(4-(methylamino)-7H-pyrrolo[2,3-d]pyrimidin-7-yl)-N-(2-((3-phenoxyphenethyl)amino)ethyl) cyclopentane-1-carboxamide]"
0.1 to 1,15 to 20,0.01 to 0.1,"Nc1ncnc2c1c(Br)cn2[C@@H]1C[C@H](CNCCCNCCc2cccc(F)c2)[C@@H](O)[C@H]1O [317 (218), (1R,2S,3R,5R)-3-(4-amino-5-bromo-7H-pyrrolo[2,3-d]pyrimidin-7-yl)-5-(((3-((3-fluorophenethyl)amino)propyl)amino)methyl) cyclopentane-1,2-diol]"
> 10,≤ 10,> 1,"CNc1ncnc2c1ccn2[C@@H]1C[C@H](CN2CCC23CNC3)[C@@H](O)[C@H]1O [445 (317), (1S,2R,3R,5R)-3-((1,6-Diazaspiro[3.3]heptan-1-yl)methyl)-5-(4-(methylamino)-7H-pyrrolo[2,3-d]pyrimidin-7-yl) cyclopentane-1,2-diol]"
> 10,≤ 10,> 1,"CNc1ncnc2c1ccn2[C@@H]1C[C@H](CS(=O)(=O)CCNCCc2ccccc2)[C@@H](O)[C@H]1O [433 (305), (1R,2S,3R,5S)-3-(4-(Methylamino)-7H-pyrrolo[2,3-d]pyrimidin-7-yl)-5-(((2-(phenethylamino)ethyl)sulfonyl)methyl) cyclopentane-1,2-diol]"
0.1 to 1,15 to 20,0.1 to 1,"Nc1ncnc2c1c(-c1ccncn1)cn2[C@@H]1C[C@H](CNCCCNCCc2ccccc2)[C@@H](O)[C@H]1O [471 (345), (1R,2S,3R,5R)-3-(4-Amino-5-(pyrimidin-4-yl)-7H-pyrrolo[2,3-d]pyrimidin-7-yl)-5-(((3-(phenethylamino)propyl)amino)methyl) cyclopentane-1,2-diol]"
> 10,≤ 10,0.1 to 1,"COCCn1cc(-c2ccc(CCNCCCNC[C@H]3O[C@@H](n4cnc5c(N)ncnc54)[C@H](O)[C@@H]3O)cc2)nn1 [295 (192), (2R,3R,4S,5R)-2-(6-amino-9H-purin-9-yl)-5-(((3-((4-(1-(2-methoxyethyl)-1H-1,2,3-triazol-4-yl)phenethyl)amino)propyl)amino)methyl)tetrahydrofuran-3,4-diol]"
0.1 to 1,15 to 20,0.01 to 0.1,"Nc1ncnc2c1c(Br)cn2[C@@H]1C[C@H](C(=O)NCCCNCCc2ccccc2)[C@@H](O)[C@H]1O [452 (324), (1S,2R,3S,4R)-4-(4-Amino-5-bromo-7H-pyrrolo[2,3-d]pyrimidin-7-yl)-2,3-dihydroxy-N-(3-(phenethylamino)propyl) cyclopentane-1-carboxamide]"
> 10,10 to 15,> 1,"CNc1ncnc2c1ccn2[C@@H]1O[C@H](CNCCCNCCc2ccccc2)[C@@H](O)[C@H]1O [309 (208), (2R,3R,45,5R)-2-(4-(methylamino)-7H-pyrrolo[2,3-d]pyrimidin-7-yl)-5-(((3-(phenethylamino)pronyl)amino)methyl) tetrahydrofuran-3.4-diol]"
> 10,≤ 10,0.1 to 1,"C=Cc1cn([C@@H]2C[C@H](CNCCCNCCc3ccccc3)[C@@H](O)[C@H]2O)c2ncncc12 [Compound 608, (1R,2S,3R,5R)-3-{5-ethenylpyrrolo[2,3-d]pyrimidin-7-yl}-5-[({3-[(2-phenylethyl)amino]propyl}amino)methyl]cyclopentane-1,2-diol]"
> 10,≤ 10,> 1,"CCC(=O)NCCCNC(=O)[C@H]1O[C@@H](n2cnc3c(N)ncnc32)[C@H](O)[C@@H]1O [305 (204), (2,3S,4R,5R)-5-(6-amino-9//-purin-9-yl)-3,4-dihydroxy-N-(3-propionamidopropyl) tetrahydrofuran-2-carboxamide]"
> 10,≤ 10,> 1,"NC[C@H]1C[C@@H](n2cc3c4c(ncnc42)NC(=O)CC3)[C@H](O)[C@@H]1O [Compound 626, 2-((1R,2S,3R,4R)-4-(Aminomethyl)-2,3-dihydroxycyclopentyl)-2,6,8,9-tetrahydro-7H-2,3,5,6-tetraazabenzo[cd]azulen-7-one]"
0.1 to 1,15 to 20,≤ 0.01,"Nc1ncnc2c1ccn2[C@@H]1C[C@H](CN(CCCNCCc2ccc(F)cc2)c2c[nH]nc2Br)[C@@H](O)[C@H]1O [Compound 603, (1R,2S,3R,5R)-3-{4-Aminopyrrolo[2,3-d]pyrimidin-7-yl}-5-{[(3-bromo-2H-pyrazol-4-yl)(3-{[2-(4-fluorophenyl)ethyl]amino}propyl)amino]methyl}cyclopentane-1,2-diol]"
1 to 10,≤ 10,> 1,"O[C@@H]1[C@@H](CNCCCNCCc2ccccc2)C[C@@H](n2cc(-c3[nH]ncc3Cl)c3cncnc32)[C@@H]1O [Compound 633, (1R,2S,3R,5R)-3-(5-(4-Chloro-1H-pyrazol-5-yl)-7H-pyrrolo[2,3-d]pyrimidin-7-yl)-5-(((3-(phenethylamino)propyl)amino)methyl)cyclopentane-1,2-diol]"
> 10,≤ 10,> 1,"CNc1ncnc2c1ccn2[C@@H]1C[C@H](COCCCNCCc2ccccc2)[C@@H](O)[C@H]1O [420 (291), (1R,2S,3R,5R)-3-(4-(methylamino)-7H-pyrrolo[2,3-d]pyrimidin-7-yl)-5-((3-(phenethylamino)propoxy)methyl) cyclopentane-1,2-diol]"
